Data taken from PubChem BioAssay (NCI).
Where “and” joins values, the source holds several entries; their conditions need not be identical. Equal values may be shown once.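 Each compound was tested at five concentrations against cells in 96-well plates for 48 hours. Abbreviation: GI50, concentration required for 50% inhibition of growth. TGI marks complete inhibition of growth.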

How the values were obtained:
Test in all cases: NCI-60 cell line screen, 48 h
RPMI-8226 leukemia = test system: RPMI-8226 leukemia
BT-549 breast = test system: BT-549 breast
SF-539 CNS = test system: SF-539 CNS
NCI-H460 lung = test system: NCI-H460 lung
K-562 leukemia = test system: K-562 leukemia
UO-31 renal = test system: UO-31 renal
IGROV1 ovarian = test system: IGROV1 ovarian
NCI-H23 lung = test system: NCI-H23 lung
SF-268 CNS = test system: SF-268 CNS
SW-620 colon = test system: SW-620 colon

Row | SMILES | GI50 (RPMI-8226 leukemia) | TGI (RPMI-8226 leukemia) | GI50 (BT-549 breast) | TGI (BT-549 breast) | GI50 (SF-539 CNS) | TGI (SF-539 CNS) | GI50 (NCI-H460 lung) | TGI (NCI-H460 lung) | GI50 (K-562 leukemia) | TGI (K-562 leukemia) | GI50 (UO-31 renal) | TGI (UO-31 renal) | GI50 (IGROV1 ovarian) | TGI (IGROV1 ovarian) | GI50 (NCI-H23 lung) | TGI (NCI-H23 lung) | GI50 (SF-268 CNS) | TGI (SF-268 CNS) | GI50 (SW-620 colon) | TGI (SW-620 colon)
1 | Cc1ccc(O)cc1Nc1ccnc2ccc(S(C)(=O)=O)cc12 | > 25 µM | > 25 µM | 5.06 µM | 17.8 µM | 1.08 µM | 7.62 µM | 10.5 µM | > 25 µM | 0.161 µM | > 25 µM | 0.496 µM | 4.81 µM | 0.478 µM | 2.12 µM | 5.97 µM | > 25 µM | 2.67 µM | > 25 µM | 15.2 µM | > 25 µM
2 | C[C@]12CC[C@H]3[C@@H](CCC4=CC(=O)CC[C@@]43C)[C@@H]1CC[C@@H]2c1csc(N)n1 | 1.21 µM | 26.2 µM | 6.12 µM | 21.3 µM | 9.2 µM | 27 µM | 3.46 µM | 13.8 µM | 2.33 µM | > 100 µM | 2.46 µM | 11.2 µM | 4.98 µM | 20.6 µM | 2.85 µM | 19.9 µM | 5.07 µM | 24.1 µM | 5.28 µM | 20.8 µM
3 | O=C(Nc1cccc(-n2cc(-c3ccncc3)c(-c3cc(O)cc(Cl)c3)n2)c1)c1ccc(N2CCOCC2)c(C(F)(F)F)c1 | 0.398 µM | 2.31 µM | 4.21 µM | > 100 µM | 1.44 µM | 4.47 µM | 0.797 µM | 3.48 µM | 0.564 µM | 4.88 µM | 1.41 µM | 15.5 µM | 5.12 µM | > 100 µM | 3.65 µM | 38.8 µM | 8.51 µM | > 100 µM | 2.83 µM | 7.06 µM
4 | O=C1NC(=N[C@@H](CO)c2ccccc2)S/C1=C\c1ccc2ncccc2c1 | 8.16 µM | > 25 µM | 4.07 µM | > 18.5 µM | 5.86 µM | 22 µM | 7.75 µM | > 25 µM | 9.04 µM | > 25 µM | 4.53 µM | > 21.2 µM | 4.71 µM | > 18.3 µM | 8.92 µM | > 25 µM | 14.1 µM | > 25 µM | 7.25 µM | > 25 µM
5 | CCn1cc(C(=O)O)c(=O)c2cc(F)c(N3CCN(S(=O)(=O)c4cccc5ccccc45)CC3)cc21 | 2.79 µM | 9.73 µM | 3.69 µM | > 100 µM | 2.43 µM | 8.53 µM | 3.43 µM | > 100 µM | 3.93 µM | > 100 µM | 2.21 µM | 8.95 µM | 2.47 µM | 7.49 µM | 3.13 µM | 12.1 µM | 4.39 µM | > 100 µM | 3.57 µM | > 100 µM
6 | Nc1nc2c(c3cnccc13)C(c1ccc(Cl)c(Cl)c1)Cc1cnccc1-2 (stereo not drawn) | 0.788 µM | 12.9 µM | 0.57 µM | 7.3 µM | 0.486 µM | 4.29 µM | 0.428 µM | 3.99 µM | 0.452 µM | 32.8 µM | 1.54 µM | 6.72 µM | 1.85 µM | 17.8 µM | 1.14 µM | 9.13 µM | 1.18 µM | 18.3 µM | 0.449 µM | 11.5 µM
7 | COC1N(C2CC(O)C(CO)O2)C(=O)NC(=O)C1(F)Br (stereo not drawn) | 34.1 µM | 50 µM and > 100 µM |  | > 100 µM | 6.8 µM | 50 µM | 1.51 µM | 50 µM and > 100 µM |  | 50 µM and > 100 µM | > 50 µM | > 100 µM | > 50 µM | > 100 µM | 13.3 µM | 50 µM and > 100 µM | 18.2 µM | 50 µM and > 100 µM | 27.7 µM | 50 µM and > 100 µM
8 | CC1(C)OC[C@@H]([C@@]2(CO[Si](c3ccccc3)(c3ccccc3)C(C)(C)C)CC=CC(=O)O2)O1 | 3.55 µM | 71.9 µM | 4.46 µM | 19 µM | 3.68 µM | 9.82 µM | 5.16 µM | > 100 µM | 3.91 µM | > 100 µM | 12.2 µM | > 100 µM | 5.42 µM | 80.2 µM | 10.2 µM | 40.2 µM | 10.5 µM | 45.8 µM | 4.55 µM | 46.7 µM
9 | CCN(C)c1nc(N(C)CC)c2nc(N(C)CC)nc(N(C)CC)c2n1 |  | > 100 µM |  | > 100 µM |  | > 100 µM |  | > 100 µM |  | > 100 µM |  | > 100 µM |  | > 100 µM |  | > 100 µM |  | > 100 µM |  | > 100 µM
10 | N#CC1c2ccccc2C=CN1C(=O)CCCl (stereo not drawn) | 2.66 µM | 9.25 µM | 16.9 µM | 30.7 µM | 8.06 µM | 22.3 µM | 18.4 µM | 36.3 µM | 4.03 µM | 60 µM | 2.32 µM | 7.2 µM | 6.68 µM | 13.8 µM | 17.6 µM | 40.9 µM | 15.2 µM | 30.9 µM | 2.36 µM | 6.53 µM
11 | Cc1nn(-c2ccc(Cl)cc2)c2ncnc(N/N=C/c3ccccc3O)c12 | 0.699 µM and 0.714 µM | > 100 µM | 1.31 µM and 0.57 µM | 57.9 µM and > 100 µM | 0.484 µM and 0.455 µM | 11.5 µM and 5.99 µM | 0.375 µM and 0.347 µM | 3.14 µM and 5.67 µM | 1.01 µM and 0.435 µM | > 100 µM | 0.331 µM and 0.251 µM | 3.01 µM and 3.35 µM | 0.534 µM and 0.485 µM | 10.5 µM and 8.48 µM | 2.05 µM and 0.721 µM | > 55 µM | 0.401 µM and 0.312 µM | 15.9 µM and > 37.3 µM | 1.35 µM and 0.505 µM | > 100 µM
12 | CC(=O)ON1CCCC(P(=O)(OCOC(=O)C(C)(C)C)OCOC(=O)C(C)(C)C)C1=O (stereo not drawn) | 0.407 µM | 1.89 µM | 0.559 µM | 5.1 µM | 1.11 µM | 5.8 µM | 0.959 µM | 4.71 µM | 0.303 µM | > 87.2 µM | 0.337 µM | 2.68 µM | 0.374 µM | 1.84 µM | 0.91 µM | 4.25 µM | 0.746 µM | 6.25 µM | 1.26 µM | 20.8 µM
13 | CC1(C)N=C(N)N=C(N)N1c1ccc(CCC(=O)Nc2ccc(S(=O)(=O)F)cc2)cc1 | 1.22 µM | > 100 µM | 12.6 µM | > 100 µM | 2.94 µM | > 94.1 µM | 0.253 µM | > 100 µM | 0.533 µM | > 100 µM | 34.1 µM | > 100 µM | 0.0723 µM | > 100 µM | 2.19 µM | > 100 µM | 1.31 µM | > 100 µM | 0.371 µM | > 100 µM
